# From PMC9460261, “Need for a Standardized Translational Drug Development Platform: Lessons Learned from the Repurposing of Drugs for COVID-19” (Microorganisms, 2022)
# Read-outs that look alike come from different tables or passages of the source.
# How the values were obtained:
# [1] = test system: SARS-CoV-2; conditions: cited from earlier work; for EC50: read-out: SARS-CoV-2 EC50
# [2] = test system: SARS-CoV-2 in Vero cells; conditions: for IC50: * one replicate only
# [3] = test system: SARS-CoV-2 in Calu-3 cells; conditions: for IC50: read-out: Calu-3 cells Average IC50, * one replicate only
# [4] = Binding to antiviral assay medium by Rapid Equilibrium Dialysis; conditions: 2% serum DMEM media; DNDi in-house data
# [5] = test system: SARS-CoV-2 in Vero cells; assay: microbe, parasite or virus in culture; conditions: Severe acute respiratory syndrome coronavirus 2, Vero
# [6] = test system: SARS-CoV-2 in Calu-3 cells; assay: microbe, parasite or virus in culture; conditions: Severe acute respiratory syndrome coronavirus 2, Calu-3, read-out: Calu-3 cells Average IC50
# [7] = test system: SARS-CoV-2; type: in vivo, Syrian hamster; conditions: doses, frequency, duration as in Table 1
# [8] = female, LGV Golden Syrian, hamster, in vivo
# [9] = in vitro; conditions: African green monkey, Selectivity Index (Vero cells)
# [10] = Population PK model from satellite PK studies in hamster
# [11] = Population PK model in human (digitized literature data)
# [12] = read-out: VERO cells Average IC50, With Pgp pump inhibitor, 2 μM CP-100356
# [13] = read-out: VERO cells Average IC50, Without Pgp pump inhibitor
# [14] = read-out: VERO cells Average IC50, With Pgp pump inhibitor, 2 μM CP-100356, * one replicate only
# [15] = read-out: VERO cells Average IC50, Without Pgp pump inhibitor, * one replicate only
# [16] = hamster of the study's median weight (80-131 g)
# [17] = human, modelled from digitized data, ref 68 (ambroxol), 71-73 (cepharanthine), 78 (fluvoxamine), 80 (molnupiravir)
compound,measurement,setting,value
"CC(C)c1nc(CN(C)C(=O)N[C@H](C(=O)N[C@@H](Cc2ccccc2)C[C@H](O)[C@H](Cc2ccccc2)NC(=O)OCc2cncs2)C(C)C)cs1 [Ritonavir, ritonavir]",EC50,"[1]; host cell Vero E6, ref 31",> 100 µM
same,EC50,"[1]; host cell Vero E6, ref 32",> 50 µM
same,EC50,[1]; host cell VeroE6/TMPRSS2,8.6 µM
O=c1nc(NO)ccn1[C@@H]1O[C@H](CO)[C@@H](O)[C@H]1O [EIDD-1931],"Selectivity Index (Vero cells), With Pgp pump inhibitor",[2]; T: toxicity observed,> 37
same,"Selectivity Index (Vero cells), Without Pgp pump inhibitor",[2]; T: toxicity observed,> 32
same,IC50,[2]; [12],1.3 µM
same,IC50,[2]; [13],1.5 µM
same,IC50,[3],3.6 µM
same,Fraction unbound in assay medium,[4],99.7%
"CC(=O)CCCCn1c(=O)c2c(ncn2C)n(C)c1=O [Pentoxyfilline, pentoxyfilline]",Activity In Vitro; Potency EC50 or IC50 < 10 µM; Vero Cells,[2],No (Potency EC50 or IC50 < 10 µM)
same,Activity In Vitro; Potency EC50 or IC50 < 10 µM; Calu-3 Cells,[3],No (Potency EC50 or IC50 < 10 µM)
same,IC50,[5]; [14],> 50 µM
same,IC50,[5]; [15],> 50 µM
same,IC50,[6],> 50 µM
bemnifosbuvir,Activity in SARS-CoV-2 Hamster Model,[7],No ^d
same,Activity in SARS-CoV-2 Hamster Model,[7]; listed as bemnifosbuvir (AT-527),no activity
same,Activity In Vitro; Potency EC50 or IC50 < 10 µM; Vero Cells,[2],No (Potency EC50 or IC50 < 10 µM)
same,IC50,[2]; [12],> 25 µM
same,IC50,[2]; [13],> 25 µM
same,Activity In Vitro; Potency EC50 or IC50 < 10 µM; Calu-3 Cells,[3],No (Potency EC50 or IC50 < 10 µM)
same,IC50,[3],> 50 µM
same,EC90,"[1]; host cell HAE, AT-511, free base of AT-527 used",0.47 µM
"CCCN(CCC)S(=O)(=O)c1ccc(C(=O)O)cc1 [Probenecid, probenecid]",Activity In Vitro; Potency EC50 or IC50 < 10 µM; Vero Cells,[2],No (Potency EC50 or IC50 < 10 µM)
same,Activity In Vitro; Potency EC50 or IC50 < 10 µM; Calu-3 Cells,[3],No (Potency EC50 or IC50 < 10 µM)
same,EC50,[1]; host cell NHBE,0.0013 µM
same,EC50,"[1]; host cell Vero E6, ref 54",0.75 µM
same,IC50,[5]; [14],> 50 µM
same,IC50,[5]; [15],> 50 µM
same,IC50,[6],> 50 µM
"COc1cc2c(c(OC)c1OC)-c1ccc(OC)c(=O)cc1[C@@H](NC(C)=O)CC2 [Colchicine, colchicine]",Activity In Vitro; Potency EC50 or IC50 < 10 µM; Vero Cells,[2],Yes (Potency EC50 or IC50 < 10 µM)
same,Activity In Vitro; Potency EC50 or IC50 < 10 µM; Calu-3 Cells,[3],Yes (Potency EC50 or IC50 < 10 µM)
same,IC50,"[5]; read-out: VERO cells Average IC50, With Pgp pump inhibitor",3.7 µM
same,IC50,[5]; [13],8.4 µM
"CC(=O)Oc1ccccc1C(=O)Nc1ncc([N+](=O)[O-])s1 [Nitazoxanide, nitazoxanide]",Activity in SARS-CoV-2 Hamster Model,[7],No
same,"CL/F, elimination clearance, population estimate (%RSE)",[8],626 (11.9) mL/h
same,"VC/F, central volume of distribution, population estimate (%RSE)",[8],188 (38.6) mL
same,selectivity ratio,[9]; With Pgp pump inhibitor,> 14.7
same,selectivity ratio,[9]; Without Pgp pump inhibitor,> 7.9
same,IC50,[5]; [14],3.4 µM
same,IC50,[5]; [15],6.3 µM
same,IC50,[6],13.6 µM
NCCC(Oc1ccc(C(F)(F)F)cc1)c1ccccc1 (centres unmarked) [norfluoxetine],"FFP, fraction undergoing first-pass metabolism, population estimate (%RSE)",[10]; hamster 97 g,0.323 (11)
same,"CL/F, elimination clearance, population estimate (%RSE)",[10]; [16],93.3 (6.3) mL/h
same,"VC/F, central volume of distribution, population estimate (%RSE)",[10]; [16],2740 (5.7) mL
"CC(C)C(=O)OC[C@H]1O[C@@H](n2ccc(NO)nc2=O)[C@H](O)[C@@H]1O [Molnupiravir, molnupiravir]",Activity in SARS-CoV-2 Hamster Model,[7],Yes
same,Activity in SARS-CoV-2 Hamster Model,[7]; listed as molnupiravir,demonstrated in vivo efficacy
same,Dose effect on MTT (power),"[11]; covariate, human model",0.127 (10.8%)
same,"CL/F, population estimate (%RSE)",[11]; [17],80.9 (3.9%) L/h
same,"VC/F, population estimate (%RSE)",[11]; [17],128 (5.7%) L
same,"MTT, population estimate (%RSE)","[11]; human, modelled from digitized data, ref 68 (ambroxol), 78 (fluvoxamine), 80 (molnupiravir)",1.0 (3.3%) h
same,Activity In Vitro; Potency EC50 or IC50 < 10 µM; Vero Cells,[2]; in the presence of a P-glycoprotein inhibitor (^Pgp),Yes ^Pgp (Potency EC50 or IC50 < 10 µM)
same,IC50,[2]; [12],2.6 µM
same,IC50,"[2]; read-out: VERO cells Average IC50, With Pgp pump inhibitor, 2 μM CP-100356, listed as molnupiravir",< 10 µM
same,Activity In Vitro; Potency EC50 or IC50 < 10 µM; Calu-3 Cells,[3],Yes (Potency EC50 or IC50 < 10 µM)
same,"CL/F, elimination clearance, population estimate (%RSE)",[8],1340 (7.6) mL/h
same,Dose effect on KA (exp),[8],-0.00247 (23.7)
same,"KA, absorption rate constant, population estimate (%RSE)",[8],1.45 (7.5) h-1
same,"Q/F (Q1/F), inter-compartment clearance, population estimate (%RSE)",[8],15.8 (23.1) mL/h
same,"VC/F, central volume of distribution, population estimate (%RSE)",[8],172 (21.6) mL
same,"VP/F, peripheral volume of distribution, population estimate (%RSE)",[8],75.3 (23.0) mL
same,EC50,[1]; host cell Calu-3,0.1 µM
same,selectivity ratio,"[9]; With Pgp pump inhibitor, T: toxicity observed",> 19.4
same,selectivity ratio,"[9]; Without Pgp pump inhibitor, T: toxicity observed",> 1.9
same,IC50,[5]; [15],26 µM
same,IC50,[6],27.8 µM
